Laboratory results published in article PMC3462495 (2012).

Target: p90 ribosomal S6 kinase 2 (RSK2), N-terminal kinase domain (mRSK2NTKD) (Mus musculus, UniProt P18654)
Assay: ITC
Assay type: binding

Chain of p90 ribosomal S6 kinase 2 (RSK2), N-terminal kinase domain (mRSK2NTKD) (P18654 45-346): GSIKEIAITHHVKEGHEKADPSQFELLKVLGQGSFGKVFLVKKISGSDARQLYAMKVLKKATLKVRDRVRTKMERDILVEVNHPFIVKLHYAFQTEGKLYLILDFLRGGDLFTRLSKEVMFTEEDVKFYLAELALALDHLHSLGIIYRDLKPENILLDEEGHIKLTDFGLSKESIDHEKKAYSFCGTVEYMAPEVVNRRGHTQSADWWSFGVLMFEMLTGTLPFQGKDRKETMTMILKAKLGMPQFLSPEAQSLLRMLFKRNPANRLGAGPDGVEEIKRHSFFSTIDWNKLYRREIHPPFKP

Q: How did the Kd turn out when Nc1ncnc2c1ncn2[C@@H]1O[C@H](COP(=O)(O)OP(=O)(O)NP(=O)(O)O)[C@@H](O)[C@H]1O [AMP-PNP] was run?
A: Its Kd is 50 µM.
